Test results published in ChEMBL document CHEMBL1136880, “Discovery of N-aryl-9-oxo-9H-fluorene-1-carboxamides as a new series of apoptosis inducers using a cell- and caspase-based high-throughput screening assay. 1. Structure-activity relationships of the carboxamide group” (Bioorg Med Chem Lett, 2009).
pEC50, pIC50: −log10 of the molar value. ≈ marks a conversion by molar mass, not a printed value. Calls of active or inactive are those of the source. The rule behind the calls is not given here.

Key:
[1] = tested on: T47D; assay: Induction of apoptosis in human T47D cells after 48 hrs; assay type: functional, cell-based
[2] = tested on: SNU-398; assay: Induction of apoptosis in human SNU398 cells after 48 hrs; assay type: functional, cell-based; details: SNU-398, 48 h
[3] = tested on: HCT-116; assay: Induction of apoptosis in human HCT116 cells after 48 hrs; assay type: functional, cell-based; details: HCT-116, 48 h
[4] = Inhibition of tubulin polymerization by DAPI staining method; details: for pIC50: read-out: IC50
[5] = tested on: T47D; assay: Growth inhibition of human T47D cells after 48 hrs; assay type: functional
[6] = tested on: HCT-116; assay: Growth inhibition of human HCT116 cells after 48 hrs; assay type: functional; details: HCT-116, 48 h
[7] = tested on: SNU-398; assay: Growth inhibition of human SNU398 cells after 48 hrs; assay type: functional; details: SNU-398, 48 h
[8] = tested on: HCT-116; assay: Cell cycle arrest in human HCT116 cells assessed as accumulation at S phase at 2 uM after 24 hrs by flow cytometry; assay type: functional
[9] = tested on: HCT-116; assay: Cell cycle arrest in human HCT116 cells assessed as accumulation at G2/M phase at 2 uM after 48 hrs by flow cytometry; assay type: functional
[10] = tested on: HCT-116; assay: Cell cycle arrest in human HCT116 cells assessed as accumulation at G2/M phase at 2 uM after 24 hrs by flow cytometry; assay type: functional
[11] = tested on: HCT-116; assay: Cell cycle arrest in human HCT116 cells assessed as accumulation at S phase at 2 uM after 48 hrs by flow cytometry; assay type: functional
[12] = tested on: HCT-116; assay: Cell cycle arrest in human HCT116 cells assessed as accumulation at G1 phase at 2 uM after 24 hrs by flow cytometry; assay type: functional
[13] = tested on: HCT-116; assay: Cell cycle arrest in human HCT116 cells assessed as accumulation at subG1 phase at 2 uM after 24 hrs by flow cytometry; assay type: functional
[14] = tested on: HCT-116; assay: Cell cycle arrest in human HCT116 cells assessed as accumulation at subG1 phase at 2 uM after 48 hrs by flow cytometry; assay type: functional
[15] = tested on: HCT-116; assay: Cell cycle arrest in human HCT116 cells assessed as accumulation at G1 phase at 2 uM after 48 hrs by flow cytometry; assay type: functional
[16] = Solubility in buffer solution containing ethanol:Cremophor:D5W of 12.5:12.5:75; assay type: physicochemical

| SMILES | pEC50 [1] | pEC50 [2] | pEC50 [3] | other results |
| --- | --- | --- | --- | --- |
| COc1cc2c(c(OC)c1OC)-c1ccc(OC)c(=O)cc1[C@@H](NC(C)=O)CC2 [COLCHICINE] |  |  |  | pIC50 [4]: 6.30 |
| CN(C(=O)c1cccc2c1C(=O)c1ccccc1-2)c1ccccc1-n1cccn1 | < 5.00 | < 5.00 | < 5.00 |  |
| O=C(Nc1ccccc1CBr)c1cccc2c1C(=O)c1ccccc1-2 | 5.33 | 5.14 | 4.97 |  |
| CN(C)Cc1ccccc1NC(=O)c1cccc2c1C(=O)c1ccccc1-2 | 5.85 | 6.15 | 6.03 |  |
| Cc1ccc(NC(=O)c2cccc3c2C(=O)c2ccccc2-3)cc1 | 5.34 | < 5.00 | < 5.00 |  |
| O=C(Nc1ccccc1[N+](=O)[O-])c1cccc2c1C(=O)c1ccccc1-2 | 5.60 | 5.59 | 5.26 |  |
| O=C(Nc1nccs1)c1cccc2c1C(=O)c1ccccc1-2 | < 5.00 | < 5.00 | < 5.00 |  |
| Cc1cccc(C)c1NC(=O)c1cccc2c1C(=O)c1ccccc1-2 | < 5.00 | < 5.00 | < 5.00 |  |
| O=C(Nc1ccccc1-n1ccnc1)c1cccc2c1C(=O)c1ccccc1-2 | < 5.00 | < 5.00 | < 5.00 |  |
| COc1ccc(NC(=O)c2cccc3c2C(=O)c2ccccc2-3)cc1 | 5.43 | < 5.00 | < 5.00 |  |
| O=C(Nc1ccccc1O)c1cccc2c1C(=O)c1ccccc1-2 | < 5.00 | < 5.00 | < 5.00 |  |
| O=C(Nc1ccccc1N1CCCCC1)c1cccc2c1C(=O)c1ccccc1-2 | 5.55 | 5.68 | 5.59 |  |
| O=C(Nc1ccccc1Br)c1cccc2c1C(=O)c1ccccc1-2 | 5.64 | 5.66 | 5.57 |  |
| CC[C@]1(O)C[C@@H]2CN(CCc3c([nH]c4ccccc34)[C@@](C(=O)OC)(c3cc4c(cc3OC)N(C)[C@H]3[C@@](O)(C(=O)OC)[C@H](OC(C)=O)[C@]5(CC)C=CCN6CC[C@]43[C@@H]65)C2)C1 [VINBLASTINE] |  |  |  | pIC50 [4]: 6.30 |
| O=C(Nc1ccccc1-n1cccn1)c1cccc2c1C(=O)c1ccccc1-2 | 5.85 | 5.96 | 5.89 | IC50 [4]: Not Active; Activity [8]: Active; Activity [9]: Active; GI50 [5]: 0.16 µM; Activity [10]: Active; solubility [16]: 6100 µg/mL (≈ 16.7 mM); GI50 [6]: 1.1 µM; Activity [11]: Active; GI50 [7]: 0.78 µM; Activity [12]: Active; Activity [13]: Active; Activity [14]: Active; Activity [15]: Active |
| O=C(Nc1ccccc1N1CCOCC1)c1cccc2c1C(=O)c1ccccc1-2 | 5.28 | 5.41 | 5.28 |  |
| O=C(NCc1ccccc1Cl)c1cccc2c1C(=O)c1ccccc1-2 | < 5.00 | < 5.00 | < 5.00 |  |
| N#Cc1ccccc1NC(=O)c1cccc2c1C(=O)c1ccccc1-2 | < 5.00 | < 5.00 | < 5.00 |  |
| Cc1ccccc1N(C)C(=O)c1cccc2c1C(=O)c1ccccc1-2 | < 5.00 | < 5.00 | < 5.00 |  |
| O=C(Nc1ccccc1)c1cccc2c1C(=O)c1ccccc1-2 | 5.36 | < 5.00 | < 5.00 |  |
| CCOc1ccccc1NC(=O)c1cccc2c1C(=O)c1ccccc1-2 | 5.54 | 6.02 | 5.80 | GI50 [5]: 0.45 µM; GI50 [6]: 0.4 µM; GI50 [7]: 0.27 µM |
| Cc1ccncc1NC(=O)c1cccc2c1C(=O)c1ccccc1-2 | < 5.00 | < 5.00 | < 5.00 |  |
| Cc1cccc(NC(=O)c2cccc3c2C(=O)c2ccccc2-3)c1 | < 5.00 | < 5.00 | < 5.00 |  |

Further lines, with some results ahead:

| pEC50 [1] | pEC50 [2] | pEC50 [3] | SMILES | other results |
| --- | --- | --- | --- | --- |
| 5.74 | < 5.00 | < 5.00 | O=C(Nc1ccccc1F)c1cccc2c1C(=O)c1ccccc1-2 |  |
| 5.46 | 5.36 | 5.44 | [N-]=[N+]=Nc1ccccc1NC(=O)c1cccc2c1C(=O)c1ccccc1-2 |  |
| 6.33 | 6.39 | 6.25 | O=C(Nc1ccccc1Cl)c1cccc2c1C(=O)c1ccccc1-2 | GI50 [5]: 0.23 µM; GI50 [6]: 0.54 µM; GI50 [7]: 0.53 µM |
| 6.01 | 6.19 | 5.96 | Cc1ccccc1NC(=O)c1cccc2c1C(=O)c1ccccc1-2 | IC50 [4]: Not Active; Activity [8]: 10%; Activity [9]: 16%; GI50 [5]: 0.18 µM; Activity [10]: 48%; GI50 [6]: 0.36 µM; Activity [11]: 11%; GI50 [7]: 0.3 µM; Activity [12]: 32%; Activity [13]: 8%; Activity [14]: 41%; Activity [15]: 29% |
| 5.23 | 5.26 | 5.20 | O=C(Nc1ccccc1-n1cccc1)c1cccc2c1C(=O)c1ccccc1-2 |  |
| 6.32 | 5.82 | 5.64 | O=C(Nc1ccccc1OCF)c1cccc2c1C(=O)c1ccccc1-2 |  |
| 6.21 | 5.31 | 5.12 | COc1ccccc1NC(=O)c1cccc2c1C(=O)c1ccccc1-2 |  |
| < 5.00 | < 5.00 | < 5.00 | Nc1ccccc1NC(=O)c1cccc2c1C(=O)c1ccccc1-2 |  |
| < 5.00 | < 5.00 | < 5.00 | O=C(Nc1ccccc1-c1nnn[nH]1)c1cccc2c1C(=O)c1ccccc1-2 |  |
| < 5.00 | < 5.00 | < 5.00 | Cc1cccnc1NC(=O)c1cccc2c1C(=O)c1ccccc1-2 |  |
| < 5.00 | < 5.00 | < 5.00 | COc1ccccc1CNC(=O)c1cccc2c1C(=O)c1ccccc1-2 |  |
| < 5.00 | < 5.00 | < 5.00 | O=C(Nc1cccnc1)c1cccc2c1C(=O)c1ccccc1-2 |  |
| 5.62 | 6.47 | 6.28 | COC(=O)c1ccccc1NC(=O)c1cccc2c1C(=O)c1ccccc1-2 | GI50 [5]: 0.18 µM; GI50 [6]: 0.48 µM; GI50 [7]: 0.31 µM |
| 5.77 | 5.77 | 5.74 | O=C(Nc1ccccc1-c1ccccc1)c1cccc2c1C(=O)c1ccccc1-2 | GI50 [5]: 0.21 µM; GI50 [6]: 0.58 µM; GI50 [7]: 0.35 µM |
| < 5.00 | < 5.00 | < 5.00 | CC1CCCCC1NC(=O)c1cccc2c1C(=O)c1ccccc1-2 (stereo not given) |  |
| 5.68 | 5.89 | 5.66 | Cc1ccccc1C(=O)Nc1cccc2c1C(=O)c1ccccc1-2 |  |
| < 5.00 | < 5.00 | < 5.00 | O=C(Nc1ccccn1)c1cccc2c1C(=O)c1ccccc1-2 |  |
| 6.01 | 6.08 | 5.92 | CN(C)c1ccccc1NC(=O)c1cccc2c1C(=O)c1ccccc1-2 | solubility [16]: 6100 µg/mL (≈ 17.8 mM) |
| < 5.00 | < 5.00 | < 5.00 | CN1CCN(Cc2ccccc2NC(=O)c2cccc3c2C(=O)c2ccccc2-3)CC1 |  |
